Source: article PMC9489722, “Identification and development of a subtype-selective allosteric AKT inhibitor suitable for clinical development” (Scientific Reports, 2022)

Experiments:
[1] = In vitro microsomal stability, human; format: in vitro ADME; details: pH 7.4; human liver microsomes; read-out: human LM CLint
Method: Compounds (final concentration = 1 µM; final DMSO concentration = 0.1%) were incubated in 0.1 M phosphate buffer at pH 7.4 with liver microsomes (human, mouse, rat or dog; 0.5 mg of protein/mL) at 37 °C. Reactions were started by addition of NADPH in 0.1 M phosphate buffer pH 7.4 (final concentration 1 mM). Reactions were quenched by addition of ice-cold methanol and frozen. The supernatants were analysed by LC/MS/MS on a Waters Acquity I-Class coupled to a Waters Xevo TQD mass spectrometer. A Waters BEH C18 2.1 × 50 mm 1.7 µm column was used and mobile phases consisted of water and methanol containing 0.1% formic acid as modifier. Analysis was by multiple reaction monitoring and conditions were optimised for each test compound.

pAKT in MCF-7 cells = experiment: Western blot of pAKT and pGSK3β in MCF-7 cells; format: cell-based; details: 1 µM, observed from 1 h after treatment
Method: AKT inhibitor treated cell lysates were obtained using RIPA lysis buffer supplemented with protease and phosphatase inhibitor tablets (Roche). Protein samples (30 µg/lane) were run by SDS-PAGE and transferred to Hybond C extra nitrocellulose membranes (Amersham Biosciences) before incubation with the following primary antibodies; pAKT, total AKT, pGSK3β, total GSK3 β, p(Cell Signaling Technologies), Actin (Sigma) or Vinculin (Santa Cruz). Primary antibodies were diluted at 1:1000 (except Actin which was diluted 1:5000). Secondary antibodies were diluted 1:10,000. Blots were visualised using Amersham ECL plus western blot detection system (GE Healthcare) or Odyssey CLx system (LI-COR).

A549 xenografts = experiment: Anti-tumour efficacy study in A549 lung cancer xenograft model; format: in vivo, mouse
Method: For efficacy in A549 xenografts, 90 male BALB/c nude mice aged 6–8 weeks and weighing approximately 20–26 g were inoculated subcutaneously in the right flank with 1 × 10^7 A549 tumour cells (ATCC) in 0.1 mL of PBS with Matrigel (1:1) to aid tumour development. When the mean tumour size reached approximately 150 mm^3, 10 mice were randomised to each experimental group, using a randomised block approach. Groups sizes were devised based on past experience of the provider. Treatment started on Day 11 after tumour inoculation with mice receiving ALM301 (either 10, 30 or 100 mg/kg) or vehicle control. Tumour size was measured twice weekly in two dimensions using a caliper, and the volume expressed in mm^3 using the formula: V = 0.5 (a × b^2), where a and b are the long and short diameters of the tumour, respectively.

normal cell lines = experiment: In vitro proliferation assay (CellTiter-Glo), normal cell lines; format: cell-based; details: normal cell lines, 72 h; read-out: anti-proliferative IC50, normal cells
Method: (§1) MCF-7, T47D, NCI-H460, HCT116, LNCaP, A431, PC3, PANC-1, A549, HT29M, SKOV-3, Du145, HMEC-1, Hs888Lu, Hela, MDA-MB-231 and SW480 cells were obtained from American Type Culture Collection (ATCC). A2780, PNT2, U251MG, HFFF2 and Fr2 cells were obtained from Public Health England European Collection of Authenticated Cell Cultures (Phe ECACC). InMyoFib and NHLF cells were acquired from Lonza. Cells were then incubated with increasing concentration of inhibitor (1 nM to 100 µM) for 72 h at 37 °C. Cell viability was determined using the CellTiter-Glo Luminescent Cell Viability Assay (Promega). IC50 values were derived as previously stated.

CYP 2C9 = CYP 2C9 (Homo sapiens, UniProt P11712); experiment: CYP2C9 inhibition; format: in vitro ADME
Sequence of CYP 2C9 (P11712 whole entry): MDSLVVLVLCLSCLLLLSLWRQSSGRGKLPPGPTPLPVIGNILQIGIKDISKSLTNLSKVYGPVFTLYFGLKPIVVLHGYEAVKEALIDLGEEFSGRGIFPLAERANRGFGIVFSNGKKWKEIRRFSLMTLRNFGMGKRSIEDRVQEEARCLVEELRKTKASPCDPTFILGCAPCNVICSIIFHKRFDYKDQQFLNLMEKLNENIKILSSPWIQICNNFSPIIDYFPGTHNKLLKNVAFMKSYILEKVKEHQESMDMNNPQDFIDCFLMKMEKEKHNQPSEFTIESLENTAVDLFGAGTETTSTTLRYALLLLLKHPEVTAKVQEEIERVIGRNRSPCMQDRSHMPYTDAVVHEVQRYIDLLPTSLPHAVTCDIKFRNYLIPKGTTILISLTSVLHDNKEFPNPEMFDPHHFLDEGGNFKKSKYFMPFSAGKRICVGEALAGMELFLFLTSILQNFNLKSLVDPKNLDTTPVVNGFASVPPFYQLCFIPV

MCF-7 cells = experiment: In vitro proliferation assay (CellTiter-Glo), MCF-7; format: cell-based; details: Homo sapiens, MCF7; MCF-7 cells (PI3KCA mutation), 72 h; read-out: anti-proliferative IC50, MCF-7
Method: as §1

[2] = Pharmacokinetic study in Sprague–Dawley rats; format: in vivo, rat; details: male SD rats
Method: Eight rats were purchased and 6 used on the PK study (3 per administration route). The remaining rats were purchased in case of mis-dosing events and were used to obtain blank biological matrix. Compounds were administered as single i.v. doses at 1 mg free base/kg or single oral doses at 5 mg free base/kg, with blood samples obtained from three rats per dose route, at 9 time-points out to 24 h post-dose. Both the intravenous and oral doses were prepared at a concentration of 1 mg free base/mL in a mixture of 5% DMSO/95% saline. Blood samples were centrifuged to give plasma. Plasma proteins were precipitated, and compounds extracted by addition of six volumes of acetonitrile containing warfarin as internal standard. Samples were centrifuged at 4000 rpm for 30 min and the supernatants were analysed on a Waters Xevo TQ mass spectrometer. Multiple Reaction Monitoring (MRM) methods were developed for each test compound using Waters IntelliStart software.
Quantification of test compounds was by extrapolation from calibration lines prepared in control rat plasma and analysed concurrently with experimental samples.
Non-compartmental analysis was performed using the software package PK Solutions 2.0 from Summit Research Services to produce the PK parameters. AUC values were calculated by the trapezoidal method.
Oral bioavailability was estimated by comparison of the drug concentration/time AUCs for individual animals after oral dosing with the mean AUC from i.v. doses.

∆AKT3 = experiment: PH domain null AKT3 biochemical kinase assay (FP iMAP)
Method: Biochemical analysis was performed using kinases obtained from Millipore (AKT1, ∆AKT1, ∆AKT2, ∆AKT3) and Signal Chem (AKT2 and AKT3). The specific activity of AKT 1,2 and 3 was determined to be 114 nmol/min/mg, 44 nmol/min/mg and 200 nmol/min/mg respectively as per activity assay protocol. ALM301 was profiled using the Fluorescent Polarisation (FP) iMAP Screening Express kit (Molecular Devices) using the FAM-Crosstide substrate [5FAM-[…]-OH] (Molecular Devices) against the three isoforms of AKT and their PH domain null mutants. Compounds were dissolved in DMSO prior to screening at 14 point titration series in the range (50 µM–50 pM). Fluorescence polarisation was measured using a Biotek Synergy 4 Hybrid microplate reader. Percentage inhibition of kinase activity was calculated and IC50 values derived using non-linear regression on GraphPad Prism. Competition of ALM301 with ATP was determined using AKT1 under increasing ATP concentrations up to 1000 µM.

PDK1 = PDK1 (Homo sapiens, UniProt O15530); experiment: SelectScreen kinase selectivity profiling, PDK1; format: biochemical
Sequence of PDK1 (O15530 whole entry): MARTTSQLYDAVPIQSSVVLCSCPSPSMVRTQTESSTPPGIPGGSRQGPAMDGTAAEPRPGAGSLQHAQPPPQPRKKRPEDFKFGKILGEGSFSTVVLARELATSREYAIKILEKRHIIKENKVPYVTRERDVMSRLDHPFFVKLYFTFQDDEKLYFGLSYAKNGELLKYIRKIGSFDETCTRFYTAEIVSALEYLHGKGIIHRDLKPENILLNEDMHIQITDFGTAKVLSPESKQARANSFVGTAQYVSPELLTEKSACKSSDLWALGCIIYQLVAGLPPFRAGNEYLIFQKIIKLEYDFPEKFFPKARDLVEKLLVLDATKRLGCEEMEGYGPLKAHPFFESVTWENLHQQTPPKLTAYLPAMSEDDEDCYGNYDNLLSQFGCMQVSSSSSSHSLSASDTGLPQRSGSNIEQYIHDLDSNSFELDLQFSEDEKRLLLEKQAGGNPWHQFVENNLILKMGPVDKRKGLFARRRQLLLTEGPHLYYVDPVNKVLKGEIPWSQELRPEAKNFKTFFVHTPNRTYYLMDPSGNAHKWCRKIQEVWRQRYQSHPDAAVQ
Method: Off-target kinase activity was performed using the SelectScreen kinase profiling service against either mini 50 kinase or full 450 kinase panels using the Z’lyte and Adapta kinase activity platforms (performed by Thermofisher).

CCN1C(=O)COc2nc(-c3ccc([C@]4(N)C[C@@H](O)C4)cc3)c(-c3ccccc3)cc21 [ALM301, 6-(4-((1S,3S)-1-amino-3-hydroxycyclobutyl)phenyl)-1-ethyl-7-phenyl-1H-pyrido[2,3-b][1,4]oxazin-2(3H)-one]
microsomal CLint at 1 µM [1]: 3.7 µL/min/mg | inhibition of AKT phosphorylation (western blot) (pAKT in MCF-7 cells): sustained up to 48 h | tolerability / body weight (A549 xenografts; 100 mg/kg dosing group, recovered after every other day dosing): Moderate bodyweight loss | tolerability / body weight (A549 xenografts; 10 and 30 mg/kg dose groups): no body weight loss or adverse effects observed | tumour growth inhibition (TGI) (A549 xenografts; p.o. 10 mg/kg q.d. × 28): 23% | tumour growth inhibition (TGI) (A549 xenografts; p.o. 30 mg/kg q.d. × 28): 31% | tumour growth inhibition (TGI) (A549 xenografts; p.o. 100 mg/kg q.d × 3 then q.o.d. × 25): 41% | IC50 (normal cell lines): > 20 µM | IC50 (CYP 2C9): > 25 µM | IC50 (MCF-7 cells): 2.25 µM | clearance ([2]; Sprague-Dawley, rat, plasma, iv, 1 mg/kg i.v., read-out: Rat PK CL): 19 mL/min/kg | Vd ([2]; Sprague-Dawley, rat, plasma, iv, 1 mg/kg i.v., read-out: Rat PK Vd): 13 L/kg | Rat PK F ([2]; 1 mg/kg i.v. and 5 mg/kg p.o., AUC 0-∞): 26% | inhibition of truncated AKT3 lacking PH domain (∆AKT3): not inhibited | IC50 (PDK1; 10-point titration curve): > 10 µM | inhibition at 10 µM (PDK1; read-out: % inhibition @ 10 µM, PDK1, 10 µM fixed concentration): 77%
